In patent US20180304019A1, “ADMINISTRATION APPARATUS” (DAICEL CORPORATION, priority 2015, published 2018):
Where two headings read alike, the source gives them in different places.

Tested on: intradermal layer, skin tissue of the rabbit in vivo
Details: dose 100 μl
Protocol: Moreover, an object of the following experimental conditions is to confirm, when an inflammatory substance is administered to the intradermal layer which is skin tissue of the rabbit in vivo, a presence or absence of an inflammatory response (formation of erythema and eschar, and formation of edema) for each elapsed time (after 24 hours, 48 hours, and 72 hours). In addition, the injection of an injection solution with the needled injector was performed at a constant pressurization rate.
16-week-old male Std: JW/CSK rabbit, already shaved and smooth skin-verified, was used.
An aqueous solution of the following inflammatory substance was used as the dosing liquid and the injection solution.
Inflammatory substance: acetic acid, diluted to a predetermined concentration with distilled water, dose 100 μl
Definitions of numerical values representing the experimental results in the tables with respect to each of erythema and eschar formation and edema formation are as follows.
(Erythema and Eschar Formation)
1 Very slight erythema (barely perceptible erythema)
2 Slight erythema (clearly perceptible erythema)
3 Moderate to severe erythema
4 Severe erythema to eschar formations
1 Very slight edema (barely perceptible edema)
2 Slight edema (edema with edges perceptible due to definite raising)
3 Moderate edema (raised approximately 1 mm)
4 Severe edema (raised 1 mm or more and extending beyond the area of exposure)

[1] = acetic acid 0.25%, Comparative example (needled injector), 24 h
[2] = acetic acid 0.25%, Comparative example (needled injector), 48 h
[3] = acetic acid 0.25%, Comparative example (needled injector), 72 h
[4] = acetic acid 0.25%, Injector 1, 24 h
[5] = acetic acid 0.25%, Injector 1, 48 h
[6] = acetic acid 0.25%, Injector 1, 72 h
[7] = acetic acid 0.5%, Comparative example (needled injector), 24 h
[8] = acetic acid 0.5%, Comparative example (needled injector), 48 h
[9] = acetic acid 0.5%, Comparative example (needled injector), 72 h
[10] = acetic acid 0.5%, Injector 1, 24 h
[11] = acetic acid 0.5%, Injector 1, 48 h
[12] = acetic acid 0.5%, Injector 1, 72 h
[13] = acetic acid 1.0%, Comparative example (needled injector), 24 h
[14] = acetic acid 1.0%, Comparative example (needled injector), 48 h
[15] = acetic acid 1.0%, Comparative example (needled injector), 72 h
[16] = acetic acid 1.0%, Injector 1, 24 h
[17] = acetic acid 1.0%, Injector 1, 48 h
[18] = acetic acid 1.0%, Injector 1, 72 h
[19] = acetic acid 1.5%, Comparative example (needled injector), 24 h
[20] = acetic acid 1.5%, Comparative example (needled injector), 48 h
[21] = acetic acid 1.5%, Comparative example (needled injector), 72 h
[22] = acetic acid 1.5%, Injector 1, 24 h
[23] = acetic acid 1.5%, Injector 1, 48 h
[24] = acetic acid 1.5%, Injector 1, 72 h
[25] = acetic acid 2.0%, Comparative example (needled injector), 24 h
[26] = acetic acid 2.0%, Comparative example (needled injector), 48 h
[27] = acetic acid 2.0%, Comparative example (needled injector), 72 h
[28] = acetic acid 2.0%, Injector 1, 24 h
[29] = acetic acid 2.0%, Injector 1, 48 h
[30] = acetic acid 2.0%, Injector 1, 72 h

CC(=O)O [Acetic acid, acetic acid]
Edema 24 h [1]: 0 | Erythema etc. 24 h [1]: 1 | Edema 48 h [2]: 0 | Erythema etc. 48 h [2]: 1 | Edema 72 h [3]: 0 | Erythema etc. 72 h [3]: 1 | Edema 24 h [4]: 0 | Erythema etc. 24 h [4]: 1 | Edema 48 h [5]: 0 | Erythema etc. 48 h [5]: 1 | Edema 72 h [6]: 0 | Erythema etc. 72 h [6]: 1 | Edema 24 h [7]: 0 | Erythema etc. 24 h [7]: 1 | Edema 48 h [8]: 0 | Erythema etc. 48 h [8]: 1 | Edema 72 h [9]: 0 | Erythema etc. 72 h [9]: 1 | Edema 24 h [10]: 0 | Erythema etc. 24 h [10]: 1 | Edema 48 h [11]: 0 | Erythema etc. 48 h [11]: 1 | Edema 72 h [12]: 0 | Erythema etc. 72 h [12]: 1 | Edema 24 h [13]: 1 | Erythema etc. 24 h [13]: 1 | Edema 48 h [14]: 1 | Erythema etc. 48 h [14]: 1 | Edema 72 h [15]: 1 | Erythema etc. 72 h [15]: 1 | Edema 24 h [16]: 0 | Erythema etc. 24 h [16]: 1 | Edema 48 h [17]: 0 | Erythema etc. 48 h [17]: 1 | Edema 72 h [18]: 0 | Erythema etc. 72 h [18]: 1 | Edema 24 h [19]: 2 | Erythema etc. 24 h [19]: 1 | Edema 48 h [20]: 2 | Erythema etc. 48 h [20]: 1 | Edema 72 h [21]: 2 | Erythema etc. 72 h [21]: 1 | Edema 24 h [22]: 0 | Erythema etc. 24 h [22]: 1 | Edema 48 h [23]: 0 | Erythema etc. 48 h [23]: 1 | Edema 72 h [24]: 0 | Erythema etc. 72 h [24]: 1 | Edema 24 h [25]: 3 | Erythema etc. 24 h [25]: 1 | Edema 48 h [26]: 3 | Erythema etc. 48 h [26]: 1 | Edema 72 h [27]: 2 | Erythema etc. 72 h [27]: 1 | Edema 24 h [28]: 1 | Erythema etc. 24 h [28]: 1 | Edema 48 h [29]: 1 | Erythema etc. 48 h [29]: 1 | Edema 72 h [30]: 1 | Erythema etc. 72 h [30]: 1
